Consider twelve molecules from patent publication US20040198731A1, “Aminoalkyl-substituted aromatic bicyclic compounds, methods for their preparation and their use as pharmaceuticals” (Aventis Pharma Deutschland GmbH, priority 2001, published 2004).

One assay relates to female NMRI mice. The assay can be described thus: Anorectic action: cumulative milk consumption after oral administration. It is filed as in vivo. The note with it: for cumulative milk consumption by treated animals: feed removed 17 h, monitored for 7 hours, N=5; for Reduction in cumulative milk consumption as % of the control: versus vehicle-treated control animals. The protocol:
The anorectic action was tested on female NMRI mice. After removal of feed for 17 hours, the preparation to be tested was administered by gavage. The animals were housed singly and, with free access to drinking water, they were offered evaporated milk 30 minutes after administration of the preparation. The consumption of evaporated milk was determined and the general behavior of the animals were monitored every half an hour for 7 hours. The measured milk consumption was compared to that of vehicle-treated control animals.

Another assay addresses T1, human MCH receptor (Homo sapiens, UniProt Q99705).
T1 construct: expressed in transfected cells
The assay can be described thus: Functional measurement of cellular calcium flow (FLIPR) in recombinant HEK293 cells expressing human MCH receptor. The assay is classed as cell-based. The note with it: cellular assay, calcium flow after addition of agonist (MCH), HEK293 (PEAK Stable Cells) expressing human MCH receptor. The text has this:
In two simultaneously published articles in Nature (Nature, 400:261-264, 1999; Nature, 400:265-269, 1999, see enclosure), two groups separately described a highly specific receptor for melanin-concentrating hormone (MCH). MCH takes over important functions in the control of food intake. Compounds acting on the MCH receptor therefore have anorectic action and are suitable for the treatment of obesity. The test for anorectic action of the inventive compounds of formula I was therefore carried out as follows.
Functional measurements for determination of IC50
Cloning of the cDNA for human MCH receptor, preparation of a recombinant HEK293 cell line expressing human MCH receptor and functional measurements with said recombinant cell line were carried out according to the description by Audinot et al. (J. Biol. Chem., 276, 13554-13562, 2001). In contrast to the reference, however, plasmid pEAK8 from EDGE Biosystems (USA) was used for constructing the expression vector. A transformed HEK cell line named “PEAK Stable Cells” (likewise from EDGE Biosystems) served as host for transfection. The functional measurements of cellular calcium flow, after addition of agonists (MCH), in the presence of the ligand of the invention was carried out with the aid of the FLIPR instrument from Molecular Devices (USA), using the manufacturer's protocols.

T1 sequence (Q99705 whole entry): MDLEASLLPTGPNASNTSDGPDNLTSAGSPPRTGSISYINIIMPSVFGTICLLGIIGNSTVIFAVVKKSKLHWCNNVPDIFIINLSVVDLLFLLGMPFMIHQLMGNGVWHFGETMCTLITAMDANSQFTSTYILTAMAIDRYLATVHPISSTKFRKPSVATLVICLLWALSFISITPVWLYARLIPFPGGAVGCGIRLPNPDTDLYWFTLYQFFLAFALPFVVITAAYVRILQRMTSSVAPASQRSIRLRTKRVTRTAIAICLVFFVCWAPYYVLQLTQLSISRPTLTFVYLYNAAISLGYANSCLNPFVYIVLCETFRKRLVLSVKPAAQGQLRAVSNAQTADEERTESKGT

One may read the IC50 as the point on the concentration scale where inhibition reaches its midpoint. `CN(C)CCn1cnc2cc(NC(=O)Nc3ccc(Oc4ccccc4)cc3)ccc21` [Example 4, 1-[1-(2-Dimethylaminoethyl)-1H-benzoimidazol-5-yl]-3-(4-phenoxyphenyl)urea]: in the assay with female NMRI mice (oral dose 10 mg/kg by gavage), the “cumulative milk consumption by treated animals” value is 5/2.74 mL and the “Reduction in cumulative milk consumption as % of the control” value was 38%. Besides, on human MCH receptor, the IC50 was 130 nM.

As to `CN(C)CCn1ccc2cc(NC(=O)Nc3ccc(Oc4ccccc4)cc3)ccc21` [Example 1, 1-[1-(2-Dimethylaminoethyl)-1H-indol-5-yl]-3-(4-phenoxyphenyl)urea], in the assay on female NMRI mice (oral dose 30 mg/kg by gavage), the “cumulative milk consumption by treated animals” value is on record as 5/2.28 mL and the “Reduction in cumulative milk consumption as % of the control” value was 30%. The IC50 at human MCH receptor was 150 nM. With `CN(C)CCn1c(-c2ccccc2)nc2cc(NC(=O)Nc3ccc(Oc4ccccc4)cc3)ccc21` [Example 13, 1-[1-(2-Dimethylaminoethyl)-2-phenyl-1H-benzoimidazol-5-yl]-3-(4-phenoxyphenyl)urea], the IC50 on human MCH receptor came to 2500 nM. On to `Cn1c(CN2CCCC2)cc2cc(NC(=O)Nc3ccc(Oc4ccccc4)cc3)ccc21` [Example 3, 1-(1-Methyl-2-pyrrolidin-1-ylmethyl-1H-indol-5-yl)-3-(4-phenoxyphenyl)urea], for which the half-maximal inhibitory concentration (IC50) at human MCH receptor turned out to be 290 nM. `CN(C)CCn1ccc2cc(NC(=O)Nc3ccc(Oc4cccc(Cl)c4)cc3)ccc21` [Example 77, 1-[4-(3-Chloro-phenoxy)-phe-nyl]-3-[1-(2-dimethyl-aminoethyl)-1H-in-dol-5-yl]urea]: the 50% inhibitory concentration (IC50) on human MCH receptor is 700 nM. `COc1ccccc1Oc1ccc(NC(=O)Nc2ccc3c(ccn3CCN(C)C)c2)cc1` [Example 76]: the IC50 on human MCH receptor was 4250 nM. On the same count and under the same terms, the result for `Cc1nc2cc(NC(=O)Nc3ccc(OC(C)C)cc3)ccc2n1CCN1CCCCC1` [Example 7, 1-(4-Isopropoxyphenyl)-3-[2-methyl-1-(2-piperidin-1-ylethyl)-1H-benzoimidazol-5-yl]urea] reads 450 nM; that for `Cc1cc2cc(NC(=O)Nc3ccc(Oc4ccccc4)cc3)ccc2n1CCN(C)C` [Example 19, 1-[1-(2-Dimethylaminoethyl)-2-methyl-1H-indol-5-yl]-3-(4-phenoxyphenyl)urea], 700 nM. For `CN(C)CCn1ccc2cc(NC(=O)Nc3ccc(Oc4ccccc4)nc3)ccc21` [Example 106, 1-[1-(2-Di-methylaminoethyl)-1H-in-dol-5-yl]-3-(6-phenoxy-pyridin-3-yl)urea], on human MCH receptor, the IC50 was 200 nM. On the same count and under the same terms, the result for `CCCCOc1ccc(NC(=O)Nc2ccc3c(ccn3CCN(C)C)c2)cc1` [Example 2, 1-(4-Butoxyphenyl)-3-[1-(2-dimethylaminoethyl)-1H-indol-5-yl]urea] reads 150 nM. As for `CN(C)CCn1ccc2cc(NC(=O)Nc3ccc(N4CCCC4)cc3)ccc21` [Example 22, 1-[1-(2-Di-methylaminoethyl)-1H-in-dol-5-yl]-3-(4-pyr-rolidin-1-ylphe-nyl)urea], on human MCH receptor, the IC50 was 4420 nM.

Consider `CC1CCCN(c2ccc(NC(=O)Nc3ccc4c(ccn4CCN(C)C)c3)cc2)C1` (stereo not shown) [Example 29, 1-[1-(2-Di-methylaminoethyl)-1H-in-dol-5-yl]-3-[4-(3-methyl-piperidin-1-yl)phe-nyl]urea], for which the IC50 at human MCH receptor was determined as 2910 nM.
